The series in a line: Human HepG2 cell viability assay in 384 well format. It counts as toxicity, cell-based. The arrangement: dose 125 nL, time 70.5 hour; concentration not given beside the values. Particulars: HepG2 cells, read-out: Inhibition.
Consider `O=C(CC1CCCC1)NCCS(=O)(=O)N1CCN(c2ccccc2)CC1`, for which the cytotoxicity at 70.5 h is -3.36%.

For the compound `O=C(c1ccc(N2CCCC2)nn1)N1CCc2ccccc21`, the cytotoxicity at 70.5 h came out at 0.119%. Next, `O=C(Nc1ccc2c(c1)OCO2)c1ccc(N2CCCC2)nn1`: 20.4%; `Nc1nc2c(c(NC(=O)Nc3ccccc3)n1)CCCC2`: 16.9%.

In the case of `Nc1nc2c(c(NC(=O)Nc3ccc(Cl)c(Cl)c3)n1)CCCC2`, the cytotoxicity at 70.5 h stood at 9.83%. Next, `CCOC(=O)c1cc2n(n1)CCCO2`: 22.1%; `Cc1cccc(N2CCN(S(=O)(=O)CCN)CC2)c1`: 21.4%; `CCc1c(C)nc(-n2nc(-c3cccs3)cc2N)[nH]c1=O`: -5.27%. Next, `Cc1cc(=O)[nH]c(-n2nc(C3CC3)cc2N)n1`: 29.2%; `CC(C)c1cc(=O)[nH]c(-n2nc(C3CC3)cc2N)n1`: 58.1%; `c1cncc(CNCCc2cccs2)c1`: -9.29%. Regarding `O=c1n(Cc2cccc(F)c2)nc2ncccn12`, the cytotoxicity at 70.5 h is 15.8%. As for `O=c1n(Cc2ccc(F)cc2)nc2ncccn12`, the cytotoxicity at 70.5 h was determined as 24.8%.

Turning to `O=c1n(Cc2ccccc2F)nc2ncccn12`, the cytotoxicity at 70.5 h is 21%. `CN1C(=O)CCc2cc(NC(=O)C3CC3)ccc21`: the cytotoxicity at 70.5 h came to 10.6%. As for `CN1C(=O)C(C)(C)COc2cc(NS(=O)(=O)c3ccccc3F)ccc21`, the cytotoxicity at 70.5 h is 16.6%. Regarding `Cc1cnn(C(C)C2CC2)c1NC(=O)c1ccco1` (stereo unspecified), the cytotoxicity at 70.5 h was -3.4%.

Take `Cc1nccnc1N1Cc2cnc(CC(C)C)nc2C1`: the cytotoxicity at 70.5 h is -6.3%. Next, `CCCc1cncnc1N1CCC(NCCc2nc(O)cc(O)n2)CC1`: -7.02%; `COc1cnc(N2CC(N3CCOCC3)C2)nc1-c1ccnn1C`: 6.03%; `CSCc1noc(CNC(=O)C2CCN(C(=O)C3CCCC3)CC2)n1`: -10.6%. Next, `CC(C)N1CCCC(CN(C)c2ccc(Cn3ccnc3)cn2)C1` (stereo unspecified): -12.6%. Next, `CCOc1ccc(C(=O)CCC(=O)NCc2cncn2CC)cc1C`: 40.5%; `CCc1n[nH]c(C(=O)N2CCCC3(CN(C)C(=O)O3)C2)c1C` (stereo unspecified): -13.7%.

Turning to `Cc1ccc(F)cc1-n1c(CCCN2CCOCC2)n[nH]c1=O`, the cytotoxicity at 70.5 h is -7.44%. With `O=C(CCC(F)(F)F)N1CCN(Cc2ccncc2)[C@@H]2CS(=O)(=O)C[C@@H]21`, the cytotoxicity at 70.5 h came out at 24%.

Take `O=C(NCCc1cnccn1)c1ccc(S(=O)(=O)NC2CCC2)cc1`: the cytotoxicity at 70.5 h came out at 18.7%. With `COc1cccc(C(=O)N2CCC3(CCC(=O)N(C(C)C)C3)CC2)c1C`, the cytotoxicity at 70.5 h was -4.66%. Take `CSCCCN1C[C@H]2CC[C@@H]1CN(Cc1[nH]cnc1C)C2`: the cytotoxicity at 70.5 h was -2.71%. Regarding `COc1cccc2c(=O)n(CCN3CCNCC3)cnc12`, the cytotoxicity at 70.5 h was -0.783%. For `CCN1CCN(S(=O)(=O)N2CCCCCC2)[C@H]2CS(=O)(=O)C[C@H]21` the value was 30%. Next, `CN1CC2(CCN(C(=O)CCCOCc3ccccc3)C2)OC1=O` (stereo unspecified): -11.2%; `COc1cc(C)ccc1OCc1nc(C(=O)N2CCC(C)CC2)co1`: -2.55%; `CCOc1ccc(-c2cc(CCN)ccc2OC)cc1`: -1.62%. With `O=C(CCc1cc(O)no1)N1CCCC(OCc2cccnc2)C1` (stereo unspecified), the cytotoxicity at 70.5 h is -10.1%. Take `OC1CCN(C2CCN(Cc3cccc(Cn4cccn4)c3)CC2)CC1`: the cytotoxicity at 70.5 h was 5.45%. For `O=C(C1CC1)N1CCc2c(ncnc2N2CCN3CCCC3C2)C1` (stereo unspecified) the value was 26%. `CCc1ncc(C(=O)N2CCCN(C3CCCC3)CC2)cn1`: the cytotoxicity at 70.5 h is -14.6%. Next, `CN(C)CCNC(=O)c1cc2n(n1)CCN(C(=O)CC(C)(C)C)C2`: -9.74%.

In the case of `c1ccc(C2CCCN(Cc3cc4n(n3)CCNC4)CC2)cc1` (stereo unspecified), the cytotoxicity at 70.5 h is -6.51%.

`CO[C@H]1CN(C(C)C)C[C@@H]1NC(=O)c1cc(COc2ccccc2)[nH]n1`: the cytotoxicity at 70.5 h is -3.71%. For `O=C(c1cnc2ccccc2c1)N1CCCC(O)(CN2CCCC2)C1` (stereo unspecified), the cytotoxicity at 70.5 h is -0.693%. Regarding `Cc1cc2c(cc1C(=O)N1CCC3(CC(=O)NC3=O)C1)OCCO2` (stereo unspecified), the cytotoxicity at 70.5 h was 10.6%. Next, `CC(=O)N1CCN(C(=O)Nc2cnc3c(cnn3C(C)C)c2)CC1`: 14.8%. Take `COc1ccccc1C(O)CNC(=O)NCc1csc(C)n1` (stereo unspecified): the cytotoxicity at 70.5 h turned out to be 1.19%.

On to `COc1ccc(C(CNC(=O)NCc2csc(C)n2)N(C)C)cc1` (stereo unspecified), for which the cytotoxicity at 70.5 h came out at 21%.

As to `CCS(=O)(=O)c1ccccc1N1CCC(NC(=O)C2CC2)CC1`, the cytotoxicity at 70.5 h amounted to 1.87%. Next, `Cc1ccc(-c2cc(CNC(=O)N3CCCN(C)CC3)on2)cc1`: 2.1%; `CCc1nc(C2CCCN(C(=O)c3ccccc3O)C2)no1` (stereo unspecified): 3.74%. For `CC(C)n1ncc2cc(NC(=O)N3CCC(C(N)=O)C3)cnc21` (stereo unspecified) the value was 16.7%. Next, `Cc1nnc(CN(C)C2CCN(CCc3ccccn3)CC2)o1`: -4.31%; `CCN1CCN(C(=O)c2ccc(=O)n(C)c2)c2ccccc21`: -3.86%; `O=C(NCC(=O)N1CCCC1)c1nn(-c2ccccc2F)cc1O`: 3.63%. Regarding `O=C(c1nn(-c2ccccc2F)cc1O)N1CCCCC1`, the cytotoxicity at 70.5 h is -7.27%.

Consider `COc1ccccc1C(=O)NS(=O)(=O)c1cccc(C#N)c1`, for which the cytotoxicity at 70.5 h is -7.53%.

With `CC(C)Oc1ncccc1CNC(=O)NC1CCOc2ccccc21` (stereo unspecified), the cytotoxicity at 70.5 h was 8.32%. With `COc1cc(C(=O)NS(=O)(=O)c2ccc(C#N)cc2)ccc1C`, the cytotoxicity at 70.5 h is -5.03%. For `COc1cc(C(=O)NS(=O)(=O)c2cccc(C#N)c2)cc(OC)c1C` the value was -9.63%; for `COc1ccc(C(=O)NS(=O)(=O)c2cccc(C#N)c2)cc1`, 13.5%; for `Cc1cnn(CC2CN(Cc3nnc(C4CC4)n3C)CCO2)c1` (stereo unspecified), -4.23%. Next, `NC(=O)NCC1CCCCN1Cc1nc(-c2ccco2)no1` (stereo unspecified): -9.61%; `O=C1NCCN1C1CCCN(Cc2coc(-c3cccs3)n2)C1` (stereo unspecified): -6.11%; `O=C(N1CCCC(n2cncn2)C1)C1(c2cccc(F)c2)CCC1` (stereo unspecified): -8.35%.

As for `Cc1ccc(-n2nnc(C(=O)NCC(F)(F)F)c2C2CC2)cc1`, the cytotoxicity at 70.5 h was -5.02%. Next, `CC(=O)N(Cc1noc(C2CC2)n1)C1CCN(Cc2ccccn2)C1` (stereo unspecified): -9.44%. As for `Cc1ccc(-n2nnc(C(=O)NCC3(CO)CC3)c2C2CC2)cc1`, the cytotoxicity at 70.5 h is -4.67%. As to `O=C(c1cc2c(s1)CCC2)N1CCCC1Cn1cccn1` (stereo unspecified), the cytotoxicity at 70.5 h is -1.69%.

Consider `O=C(N1CCCC(n2cncn2)C1)C1(c2cccc(F)c2)CCCC1` (stereo unspecified), for which the cytotoxicity at 70.5 h amounted to 16.5%. For `CCc1ncncc1C(=O)N1CCN(Cc2cscn2)CC1` the value was -3.97%; for `O=C(c1cc2c(s1)CCOC2)N1CCCCC1Cn1cccn1` (stereo unspecified), -7.81%. As for `CC(=O)N(Cc1noc(C2CC2)n1)C1CCN(Cc2ccccc2)C1` (stereo unspecified), the cytotoxicity at 70.5 h is -5.69%. In the case of `c1sc(C2CCCCC2)nc1CN1CCn2c(nnc2C2CC2)C1`, the cytotoxicity at 70.5 h is -3.37%. For `O=C(CN1CC(n2cccn2)C1)NCCCN1CCCC1=O` the value was 22.2%; for `CC(C)c1ncc2c(n1)CN(Cc1nc(-c3cccnc3)no1)CC2`, 13.2%. For `Cc1c(C(=O)N2CCCC2c2cnn(C)c2)cnn1-c1ccccc1` (stereo unspecified) the value was 17.9%; for `O=C(NCCNc1ncccn1)C1CCCC1`, 15.4%; for `O=C(c1cc(C2CC2)[nH]n1)N1CCN(Cc2ccccc2)CC1`, -4.29%.

For `O=C(c1cc(C2CC2)[nH]n1)N1CCN(Cc2ccc(Cl)cc2)CC1`, the cytotoxicity at 70.5 h is 12.5%. Next, `Cc1nnc2n1CCN(Cc1csc(COc3ccccc3)n1)C2`: -7.26%.

Turning to `NC(=O)C1CN(C(=O)Nc2ccccc2SC2CCCC2)CCO1` (stereo unspecified), the cytotoxicity at 70.5 h is -3.34%. Turning to `COCCOc1cccc(C(=O)N2CCCC(n3ccnc3)C2)c1` (stereo unspecified), the cytotoxicity at 70.5 h was -4.62%.

Turning to `N#CCCNC(=O)CN1CC(n2cccn2)C1`, the cytotoxicity at 70.5 h is -1.56%. Next, `Cc1ccc(NC2CCN(C(=O)CCc3ccncc3)CC2)nn1`: -7.44%; `c1ccc2oc(CCCN3CCCCC3Cn3cncn3)nc2c1` (stereo unspecified): -7.94%.

Regarding `O=C(CN1CC(n2cccn2)C1)NCCC1=CCCCC1`, the cytotoxicity at 70.5 h was -6.23%.

For `CC(C)c1ncc2c(n1)CN(Cc1nc(-c3ccco3)no1)CC2`, the cytotoxicity at 70.5 h is -8.2%.

Turning to `CN1CCOC(CN(C(=O)COc2ccccc2)c2nccs2)C1` (stereo unspecified), the cytotoxicity at 70.5 h is -4%. On to `CC(C)c1ncc2c(n1)CN(Cc1nc(-c3ccccn3)no1)CC2`, for which the cytotoxicity at 70.5 h was -6.83%. Next, `Cc1nn(C)c(C)c1C1CCCN1Cc1nc(-c2cccs2)no1` (stereo unspecified): -2%; `CC1CN(CC(=O)NCc2cccs2)CCN1c1nccs1` (stereo unspecified): -10.4%; `Cc1nn(C)c(Cl)c1C1CCCN1Cc1nc(-c2ccco2)no1` (stereo unspecified): -6.17%. Consider `CCc1ncc2c(n1)CN(Cc1nc(-c3cccs3)no1)CC2`, for which the cytotoxicity at 70.5 h was -13%.

On to `c1ccc2oc(CN3CCCC3Cn3cncn3)nc2c1` (stereo unspecified), for which the cytotoxicity at 70.5 h was -6.61%.

For `Cc1cnn(CC2CCCN2Cc2nnc(C(C)C)o2)c1` (stereo unspecified), the cytotoxicity at 70.5 h was 23%.

`Cn1ncc2c(N3CCN(C(=O)c4ccsc4)CC3)ncnc21`: the cytotoxicity at 70.5 h is -4.15%.

Regarding `COc1ccc(Cl)cc1C(=O)NCCNc1cnccn1`, the cytotoxicity at 70.5 h is -3.57%. As to `Cn1ccc(C(=O)N2CCN(c3nccs3)CC2)cc1=O`, the cytotoxicity at 70.5 h is 2.52%. For `COc1cc(CNCc2ccnc(N3CCOCC3)c2)cc(OC)c1` the value was 17.7%; for `c1csc(-c2noc(C3CNC3)n2)c1`, -8.98%; for `Clc1cccnc1OC1CCNCC1`, 22.1%.

Regarding `N#Cc1cccnc1OC1CCNCC1`, the cytotoxicity at 70.5 h came to 37.8%.
